In patent US12590099B2, “Inhibitors of histone deacetylase useful for the treatment or prevention of HIV infection” (Merck Sharp & Dohme LLC, priority 2018, dated 2026):
Read-outs that look alike come from different tables or passages of the source.

Tests used:
Type in all cases: biochemical
Recombinant human HDAC8 = biological target: T1, Recombinant human HDAC8 (Homo sapiens, UniProt Q9BY41); assay: Human HDAC enzyme inhibitor Fluor-de-Lys assay, HDAC8
T1 construct: purchased Enzo Life Sciences BML-SE145-0100
T1 sequence (Q9BY41 1-377): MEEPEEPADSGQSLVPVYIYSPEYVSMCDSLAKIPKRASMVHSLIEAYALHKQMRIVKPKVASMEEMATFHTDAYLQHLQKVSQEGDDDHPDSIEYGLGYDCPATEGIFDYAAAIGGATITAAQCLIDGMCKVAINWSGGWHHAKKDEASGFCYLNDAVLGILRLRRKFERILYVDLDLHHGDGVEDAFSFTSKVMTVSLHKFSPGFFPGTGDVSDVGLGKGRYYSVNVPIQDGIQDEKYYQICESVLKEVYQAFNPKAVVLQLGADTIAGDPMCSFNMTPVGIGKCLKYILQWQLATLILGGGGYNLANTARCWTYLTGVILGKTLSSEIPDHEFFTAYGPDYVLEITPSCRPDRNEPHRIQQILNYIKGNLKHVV

HDAC6 = biological target: T2, HDAC6 (Homo sapiens, UniProt Q9UBN7); assay: Human HDAC enzyme inhibitor Fluor-de-Lys assay, HDAC6
T2 sequence (Q9UBN7 1-1215): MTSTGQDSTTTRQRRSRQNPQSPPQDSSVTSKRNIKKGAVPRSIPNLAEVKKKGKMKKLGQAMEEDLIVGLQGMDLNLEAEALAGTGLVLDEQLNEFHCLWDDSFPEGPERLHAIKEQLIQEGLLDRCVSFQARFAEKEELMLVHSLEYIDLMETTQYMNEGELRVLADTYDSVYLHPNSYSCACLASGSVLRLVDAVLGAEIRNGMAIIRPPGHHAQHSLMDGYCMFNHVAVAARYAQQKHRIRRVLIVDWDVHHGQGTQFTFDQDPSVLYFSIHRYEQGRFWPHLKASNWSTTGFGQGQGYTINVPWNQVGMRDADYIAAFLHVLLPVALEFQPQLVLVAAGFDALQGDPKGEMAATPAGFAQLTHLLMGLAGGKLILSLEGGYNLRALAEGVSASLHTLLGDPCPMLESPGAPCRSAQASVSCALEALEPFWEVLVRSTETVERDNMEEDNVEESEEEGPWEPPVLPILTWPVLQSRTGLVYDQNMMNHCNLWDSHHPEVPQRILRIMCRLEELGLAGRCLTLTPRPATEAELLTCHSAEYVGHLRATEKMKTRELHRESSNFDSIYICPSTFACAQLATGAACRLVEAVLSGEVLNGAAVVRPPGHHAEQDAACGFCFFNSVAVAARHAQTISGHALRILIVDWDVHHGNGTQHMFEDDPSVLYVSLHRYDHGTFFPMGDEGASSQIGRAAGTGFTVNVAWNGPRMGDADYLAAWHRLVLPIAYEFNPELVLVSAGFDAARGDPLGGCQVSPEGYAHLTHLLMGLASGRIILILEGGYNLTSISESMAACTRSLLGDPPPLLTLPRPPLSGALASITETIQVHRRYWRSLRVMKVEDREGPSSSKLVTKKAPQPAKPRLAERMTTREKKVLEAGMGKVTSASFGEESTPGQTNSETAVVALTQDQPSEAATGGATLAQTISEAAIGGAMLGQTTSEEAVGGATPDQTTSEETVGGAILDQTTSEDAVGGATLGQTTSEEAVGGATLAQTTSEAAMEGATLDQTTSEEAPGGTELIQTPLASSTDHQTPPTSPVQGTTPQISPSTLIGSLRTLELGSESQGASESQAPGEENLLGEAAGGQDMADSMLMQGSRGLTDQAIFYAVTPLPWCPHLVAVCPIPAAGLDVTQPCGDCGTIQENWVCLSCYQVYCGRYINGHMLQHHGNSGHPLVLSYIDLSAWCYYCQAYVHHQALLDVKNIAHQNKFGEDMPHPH

Recombinant human HDAC2 = biological target: T3, Recombinant human HDAC2 (Homo sapiens, UniProt Q92769); assay: Human HDAC enzyme inhibitor Fluor-de-Lys assay, HDAC2
T3 construct: Full length human HDAC2-FLAG was expressed in baculovirus infected Sf9 cells; FLAG (C); made in house; host or cells: Sf9 (baculovirus)
T3 sequence (Q92769 whole entry): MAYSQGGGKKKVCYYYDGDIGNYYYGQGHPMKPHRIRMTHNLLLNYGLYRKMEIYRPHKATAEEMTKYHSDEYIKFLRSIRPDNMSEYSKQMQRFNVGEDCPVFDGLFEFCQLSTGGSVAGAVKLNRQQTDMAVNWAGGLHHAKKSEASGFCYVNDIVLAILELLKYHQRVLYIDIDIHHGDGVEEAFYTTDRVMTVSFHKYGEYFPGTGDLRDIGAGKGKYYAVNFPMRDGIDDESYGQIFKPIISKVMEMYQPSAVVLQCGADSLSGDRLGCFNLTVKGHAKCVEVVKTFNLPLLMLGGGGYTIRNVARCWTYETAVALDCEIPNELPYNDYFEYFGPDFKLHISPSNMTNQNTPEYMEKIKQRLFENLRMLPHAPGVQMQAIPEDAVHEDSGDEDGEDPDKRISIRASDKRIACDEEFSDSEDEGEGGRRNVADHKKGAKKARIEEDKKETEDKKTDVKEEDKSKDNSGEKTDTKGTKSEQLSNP
Method in brief: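 Fluor-de-Lys format at room temperature (23° C.): compounds titrated 10-point, 1:3, preincubated with HDAC before substrate addition. Developer with excess HDAC inhibitor ends the reaction, and trypsin-liberated AMC fluorescence is the read-out.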

[1] = biological target: T4, Recombinant human HDAC3/SMRT heterodimer (Homo sapiens, UniProt O15379); assay: Human HDAC enzyme inhibitor Fluor-de-Lys assay, HDAC3/SMRT
T4 construct: FLAG (C); made in house
T4 sequence (O15379 whole entry): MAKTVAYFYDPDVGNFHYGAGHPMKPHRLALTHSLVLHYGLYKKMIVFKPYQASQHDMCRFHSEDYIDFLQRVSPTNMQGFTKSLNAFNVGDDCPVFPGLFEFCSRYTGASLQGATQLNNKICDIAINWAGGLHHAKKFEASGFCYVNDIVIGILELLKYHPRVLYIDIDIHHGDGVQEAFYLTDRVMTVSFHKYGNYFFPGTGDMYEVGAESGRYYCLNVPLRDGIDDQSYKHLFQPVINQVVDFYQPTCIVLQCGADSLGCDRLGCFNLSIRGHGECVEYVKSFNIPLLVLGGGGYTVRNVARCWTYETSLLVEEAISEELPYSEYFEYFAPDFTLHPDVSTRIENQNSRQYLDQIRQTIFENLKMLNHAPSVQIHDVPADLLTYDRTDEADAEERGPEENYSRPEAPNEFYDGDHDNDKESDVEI
T4 sequence (Q9Y618 1-899 partner limits assumed): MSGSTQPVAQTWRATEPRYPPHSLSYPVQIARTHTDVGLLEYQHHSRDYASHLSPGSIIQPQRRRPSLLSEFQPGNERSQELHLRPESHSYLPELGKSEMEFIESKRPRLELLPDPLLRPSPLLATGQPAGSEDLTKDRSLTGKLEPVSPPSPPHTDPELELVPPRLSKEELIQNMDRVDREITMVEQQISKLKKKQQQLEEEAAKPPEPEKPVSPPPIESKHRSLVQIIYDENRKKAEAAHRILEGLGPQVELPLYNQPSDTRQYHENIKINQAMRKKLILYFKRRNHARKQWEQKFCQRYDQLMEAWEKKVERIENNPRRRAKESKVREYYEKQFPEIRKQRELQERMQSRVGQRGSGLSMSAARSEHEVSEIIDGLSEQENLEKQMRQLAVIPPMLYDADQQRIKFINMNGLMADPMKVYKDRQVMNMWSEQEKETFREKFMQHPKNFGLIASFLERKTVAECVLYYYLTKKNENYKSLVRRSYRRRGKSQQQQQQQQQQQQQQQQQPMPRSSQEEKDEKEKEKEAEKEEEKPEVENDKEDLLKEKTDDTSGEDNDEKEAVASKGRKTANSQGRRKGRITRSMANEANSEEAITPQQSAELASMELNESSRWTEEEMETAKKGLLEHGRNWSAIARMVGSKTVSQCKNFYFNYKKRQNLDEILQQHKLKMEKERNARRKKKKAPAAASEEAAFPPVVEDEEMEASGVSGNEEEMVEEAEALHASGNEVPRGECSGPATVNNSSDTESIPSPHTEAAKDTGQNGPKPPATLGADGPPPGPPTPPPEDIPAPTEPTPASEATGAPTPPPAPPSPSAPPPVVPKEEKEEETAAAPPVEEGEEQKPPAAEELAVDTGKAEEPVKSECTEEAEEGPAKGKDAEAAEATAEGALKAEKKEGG

[2] = recombinant human HDAC8, Fluor-de-Lys assay
[3] = recombinant human HDAC2, Fluor-de-Lys assay
[4] = recombinant human HDAC3/SMRT, Fluor-de-Lys assay

Compound	IC50 (Recombinant human HDAC8; [2])	IC50 (HDAC6; HDAC6, Fluor-de-Lys assay)	IC50 (Recombinant human HDAC2; [3])	IC50 [1]	IC50 (Recombinant human HDAC8)	IC50 (HDAC6)	IC50 (Recombinant human HDAC2)	IC50 [1, 4]
CCC(=O)CCCCC[C@H](NC(=O)[C@H]1CC12CCN(C)CC2)c1ncc(-c2ccc(C(=O)NC3CCOC3)cc2)[nH]1 (stereo partly drawn) [Compound 258]	16.4 µM	38.7 µM	0.0238 µM					
CCC(=O)CCCCC[C@H](NC(=O)[C@H]1CC12CCN(C)CC2)c1ncc(-c2coc3ccccc3c2=O)[nH]1 [Compound 86]				0.0121 µM	3.17 µM	3.33 µM	0.0648 µM	
CCC(=O)CCCCC[C@H](NC(=O)[C@H]1CC12CCN(C)CC2)c1ncc(-c2ccc3ccc(C)nc3c2F)[nH]1 [Compound 354]	0.798 µM	0.354 µM	0.0113 µM					0.00218 µM
CCC(=O)CCCCC[C@H](NC(=O)C1(N)CC2(CN(C)C2)C1)c1ncc(-c2cc3ccccc3nc2OC)[nH]1 [Compound 276]	5 µM	1.28 µM	0.0091 µM					0.00157 µM
CCC(=O)CCCCC[C@H](NC(=O)[C@H]1CC12CCN(CC)CC2)c1ncc(-c2ccc(-n3cccn3)cc2)o1 [Compound 95]				0.00395 µM	20.5 µM	1.25 µM	0.0315 µM	
CCC(=O)CCCCC[C@H](NC(=O)[C@H]1CC12CCN(CC)CC2)c1ncc(-c2ccc3c(ccc(=O)n3C)c2)o1 [Compound 97]				0.00438 µM	> 45 µM	7.09 µM	0.023 µM	
CCC(=O)CCCCC[C@H](NC(=O)C1CC12CCN(CC)CC2)c1nc(-c2ccc(F)cc2)[nH]c1-c1cn[nH]c1 (stereo partly drawn) [Compound 249]	31.5 µM	19.3 µM	0.0883 µM					0.0201 µM
CCC(=O)CCCCCC(NC(=O)C1CCC2(CC1)OC(=O)c1cnccc12)c1nnc(-c2cc3ccccc3nc2OC)o1 (stereo not drawn) [Compound 364]	32.1 µM	1.99 µM	0.248 µM					0.0218 µM
CCC(=O)CCCCC[C@H](NC(=O)C1CC12CCN(CC)CC2)c1nc(-c2ccc(F)cc2)[nH]c1-c1ccn(C)c1 (stereo partly drawn) [Compound 251]	29.4 µM	41.7 µM	0.0126 µM					0.00182 µM
CCC(=O)CCCCC[C@H](NC(=O)[C@H]1CC12CCN(C)CC2)c1ncc(-c2cnc3c(c2)ncn3C)[nH]1 [Compound 256]	1.1 µM	3.93 µM	0.28 µM					0.0579 µM
CCC(=O)CCCCC[C@H](NC(=O)[C@H]1CC12CCN(C(C)C)CC2)c1ncc(-c2cc3ccccc3nc2OC)o1 [Compound 99]					32.9 µM	0.11 µM	0.0178 µM	
CCOc1ncc(-c2cnc([C@H](CCCCCC(=O)CC)NC(=O)[C@H]3CC34CCN(C)CC4)[nH]2)cn1 [Compound 266]	19.3 µM	42.5 µM	0.372 µM					
CCC(=O)CCCCC[C@H](NC(=O)[C@H]1CC12CCN(C)CC2)c1ncc(-c2cnc(-n3cc(C)cn3)nc2)[nH]1 [Compound 257]	10.4 µM	36.6 µM	0.185 µM					
CCC(=O)CCCCC[C@H](NC(=O)[C@H]1CC12CCN(C)CC2)c1ncc(-c2ccc(-n3nc(C)cc3C)cc2)[nH]1 [Compound 260]	> 15 µM	28.4 µM	0.0525 µM					
CCC(=O)CCCCC[C@H](NC(=O)[C@H]1CC12CCN(C)CC2)c1ncc(-c2cnc3cccnc3c2)[nH]1 [Compound 259]	6.14 µM	3.14 µM	0.095 µM					
CCC(=O)CCCCC[C@H](NC(=O)[C@H]1CC12CCN(C)CC2)c1ncc(-c2ccc(C)nc2OC)[nH]1 [Compound 268]	6.08 µM	1.78 µM	0.0172 µM					
CCC(=O)CCCCC[C@H](NC(=O)CC1CC2(C1)CN(C)C2)c1ncc(-c2cc3ccccc3nc2OC)[nH]1 [Compound 314]	2.57 µM	0.405 µM	0.0051 µM					
CCC(=O)CCCCC[C@H](NC(=O)[C@@H]1CC12CN(C)C2)c1ncc(-c2cc3ccc(C)nc3cc2OC)o1 (single isomer, unassigned) [Compound 231]	> 0.9 µM	0.22 µM	0.0192 µM					
CCC(=O)CCCCC[C@H](NC(=O)[C@H]1CC12CCN(C)CC2)c1ncc(-c2ccnc(N3CCOCC3)c2F)[nH]1 [Compound 261]	4.59 µM	2.47 µM	0.102 µM					
CCC(=O)CCCCC[C@H](NC(=O)[C@H]1CC12CCN(C)CC2)c1ncc(-c2ccc(-c3cccnc3)nc2)[nH]1 [Compound 262]	12.6 µM	33.5 µM	0.0188 µM					
CCC(=O)CCCCC[C@H](NC(=O)[C@H]1CC12CCN(C)CC2)c1ncc(-c2cn(C)c3ccccc23)[nH]1 [Compound 264]	1.14 µM	1.71 µM	0.0059 µM					
CCC(=O)CCCCC[C@H](NC(=O)C1CC12CCN(CC)CC2)c1nc(-c2ccc(F)cc2)[nH]c1-c1ccsc1 (stereo partly drawn) [Compound 250]	38.3 µM	21.9 µM	0.192 µM					
CCC(=O)CCCCC[C@H](NC(=O)[C@H]1CC12CCN(C)CC2)c1nnc(-c2cc3ccccc3nc2OC)o1 [Compound 306]	> 45 µM	1.17 µM	0.0582 µM					
CCC(=O)CCCCC[C@H](NC(=O)[C@H]1CC12CN(C)C2)c1ncc(-c2cc3ccc(C)nc3cc2OC)o1 (single isomer, unassigned) [Compound 230]	> 0.9 µM	0.396 µM	0.0027 µM					
CCC(=O)CCCCC[C@H](NC(=O)[C@H]1CC12CCN(C)CC2)c1ncc(-c2ccc3ncoc3c2)[nH]1 [Compound 89]				0.00227 µM	9.7 µM	7.59 µM		
CCC(=O)CCCCC[C@H](NC(=O)[C@@H]1CC12CCN(C)CC2)c1nnc(-c2cc3ccccc3nc2OC)o1 [Compound 305]	> 45 µM	0.636 µM	0.16 µM					
CCC(=O)CCCCC[C@H](NC(=O)C1CC12CCN(CC)CC2)c1nc(-c2ccc(F)cc2)[nH]c1-c1cnn(C)c1 (stereo partly drawn) [Compound 248]	22.3 µM	> 45 µM	0.0241 µM					
